{"source": "paper PMC11345829", "about": "“Discovery of Potent Isoquinolinequinone N-Oxides to Overcome Cancer Multidrug Resistance” (Journal of Medicinal Chemistry, 2024)", "key": {"NCI-H322 [1]": {"test_system": "NCI-H322", "assay": "NCI60 five-dose GI50 (NCI data)", "format": "cell-based", "conditions": "Homo sapiens, SI Table S20", "from_the_text": "(§1) The concentration−response curve generated enables the determination of three criteria, GI50 (drug concentration at which 50% of cell growth is inhibited), total growth inhibition (TGI) and LC50 (drug concentration at which 50% of tumor cells are killed) which can be used to compare effectiveness against any compound tested in the screen since its inception.\n(§2) S2.1 NCI Screening Assay Experimental details\nNCI Screening Assay Experimental: Cancer cell growth assays (NCI60 screening) 5,6 One-dose study: Tested compounds were initially solubilised in DMSO, diluted into RPMI 1640 and 5% fetal bovine serum/L-glutamine, and added to 96-well plates containing cell lines previously cultured for 24 h. After 48 h incubation, the media were removed, and the cells were fixed and stained with sulforhodamine B to determine overall percent growth/ total protein content. Unbound dye was removed with five washes of 1% acetic acid, and the plates were allowed to air dry. The dye was then resolubilised in Tris buffer, and the colorimetric absorbance was measured (515 nm). Growth inhibition was measured relative to the response generated from proliferating cells cultured under identical conditions for 48 h. Data from one-dose experiments pertains to the percentage growth at […]\nFive-dose study: Serial 5 × 10-fold dilution from an initial DMSO stock solution was performed, prior to incubation at each individual concentration (10 nM, 100 nM, 1 μM, 10 μM and 100 μM). Using seven absorbance measurements (time zero (Tz), control growth (C), and test growth in the presence of drug at the five concentration levels (Ti)), the percentage growth was calculated at each of the drug concentrations levels. Percentage growth inhibition was calculated as: [(Ti − Tz)/(C − Tz)] × 100 for concentrations for which Ti ≥ Tz, [(Ti − Tz)/Tz] × 100 for concentrations for which Ti < Tz. Three dose response parameters were calculated for each experimental agent. […]\nwas calculated from [(Ti − Tz)/(C − Tz)] × 100 = 50, which is the drug concentration resulting in a 50% reduction in the net protein increase (as measured by sulforhodamine B staining) in control cells during the drug incubation. The drug concentration resulting in total growth inhibition (TGI) was calculated from Ti = Tz. The LC50 (concentration of drug resulting in a 50% reduction in the measured protein at the end of the drug treatment as compared to that at the beginning) indicating a net loss of cells following treatment was calculated from [(Ti − Tz)/Tz] × 100 = −50. Values were calculated for each of these three parameters if the level of activity was reached; however, if the effect was not reached or was exceeded, the value for that parameter was expressed as greater or less than the maximum or minimum concentration tested."}, "colon cell line panel": {"test_system": "colon cell line panel", "assay": "NCI60 five-dose GI50, colon cell line panel", "format": "cell-based", "conditions": "Homo sapiens, read-out: GI50 range colon cell line panel", "from_the_text": "as §1, §2\nNCI Screening Assay Experimental: Cancer cell growth assays (NCI60 screening) 5,6 One-dose study: Tested compounds were initially solubilised in DMSO, diluted into RPMI 1640 and 5% fetal bovine serum/L-glutamine, and added to 96-well plates containing cell lines previously cultured for 24 h. […] The dye was then resolubilised in Tris buffer, and the colorimetric absorbance was measured (515 nm). Growth inhibition was measured relative to the response generated from proliferating cells cultured under identical conditions for 48 h. […]\nFive-dose study: Serial 5 × 10-fold dilution from an initial DMSO stock solution was performed, prior to incubation at each individual concentration (10 nM, 100 nM, 1 μM, 10 μM and 100 μM). Using seven absorbance measurements (time zero (Tz), control growth (C), and test growth in the presence of drug at the five concentration levels (Ti)), the percentage growth was calculated at each of the drug concentrations levels. […]"}, "NCI-H460 cells": {"test_system": "NCI-H460 cells", "assay": "Trypan blue exclusion assay", "format": "cell-based, human", "conditions": "48 h; GI50 (0.35 μM) and 2 × GI50 (0.7 μM)", "experimental": "After this treatment, cells were mixed with 0.2% (v/v) trypan blue dye (Merck LifeScience) and counted on an hemocytometer (Neubauer Chamber).\nS3.4 Effect of 25 on the viable cell number of NCI-H460 cells (Figure S65)\nFigure S65 Effect of 25 on the viable cell number of NCI-H460 cells, determined with the Trypan blue exclusion assay. Cells were incubated for 48 h with medium, DMSO (vehicle 1: % of vehicle used at the GI50 concentration of compound; vehicle 2: % of vehicle used at the 2GI50 concentration of compound), […]\ncompound 25. Results are the mean ± SEM from at least three independent experiments. # p ≤ 0.05 and **** p ≤ 0.0001, when comparing DMSO vs. compound treatment.\n(1 picture or pasted object on this page, not shown here)"}, "NCI-H460/R spheroids": {"test_system": "NCI-H460/R spheroids", "assay": "Cell Titer-Glo 3D spheroid viability assay", "format": "cell-based, human", "conditions": "48 h; 25 at 0.35 and 0.7 μM; etoposide 2 μM", "method": "Results are presented as the % of luciferase luminescence relative to the “blank” cells (medium).\nSpheroid formation was conducted in 12-series agarose 3D Petri Dish micromolds (MicroTissues Technology, MicroTissues Inc., Sigma-Aldrich). The agarose micromolds were prepared using 1% agarose in a 0.9% NaCl solution and then placed in 12-well plates and equilibrated with RPMI supplemented with 10% FBS for at least 2 h before cell seeding. Cell suspensions corresponding to 500 cells per spheroid of the NSCLC cell lines (NCI-H460 and NCI-H460/R), and 1000 cells per spheroid of the colorectal cancer cell lines (DLD1 and DLD1-TxR) were seeded in the corresponding micromolds. […] Spheroid formation was monitored with the Leica DMi1 microscope. […] At the end of the treatment, images from at least 8 different spheroids per condition were captured on the Leica Dmi1 microscope, and posteriorly analyzed with the automated open-source software AnaSP.[82] Spheroid parameters, such as equivalent diameter, circularity, and compactness, were calculated.\nSpheroid viability was determined through the luminescence-based Cell Titer-Glo 3D cell viability assay (Promega). […] The plate was then incubated in the dark for 5 min with agitation and allowed to rest for 25 min before luminescence measurement. Luminescence was quantified using the microplate reader Synergy MX coupled with the GEN5 software. […]"}, "A549 [2]": {"test_system": "A549", "assay": "NCI60 five-dose GI50 (NCI data)", "format": "cell-based", "conditions": "Homo sapiens, SI Table S20", "from_the_text": "as §1, §2\nNCI Screening Assay Experimental: Cancer cell growth assays (NCI60 screening) 5,6 […]\nUnbound dye was […]\nremoved with five washes of 1% acetic acid, and the plates were allowed to air dry. The dye was then resolubilised in Tris buffer, and the colorimetric absorbance was measured (515 nm). Growth inhibition was measured relative to the response generated from proliferating cells cultured under identical conditions for 48 h. Data from one-dose experiments pertains to the percentage growth at […]\nFive-dose study: Serial 5 × 10-fold dilution from an initial DMSO stock solution was performed, prior to incubation at each individual concentration (10 nM, 100 nM, 1 μM, 10 μM and 100 μM). Using seven absorbance measurements (time zero (Tz), control growth (C), and test growth in the presence of drug at the five concentration levels (Ti)), the percentage growth was calculated at each of the drug concentrations levels. […] Three dose response parameters were calculated for each experimental agent. […]"}, "NCI-H322 [3]": {"test_system": "NCI-H322", "assay": "SRB cell growth inhibition assay", "format": "cell-based", "conditions": "Homo sapiens, 48 h, NSCLC, read-out: GI50 ± SEM NCI-H322", "experimental": "(§3) Two pairs of drug-sensitive and multidrug-resistant (MDR) cell lines from human nonsmall cell lung cancer (NSCLC), NCI-H460 and NCI-H460/R, and colorectal cancer, DLD1 and DLD1-TxR, kindly provided by Dr M. Pešić (Belgrade, Serbia), were used to evaluate the growth inhibition potential of the compounds 1, 2, 3, 4, 5, 20, 23, 24, an 25.[76],[77] Additionally, growth inhibition assays were performed with compound 25 on two other NSCLC cell lines, A549 and NCI-H322, obtained from the American Type Culture Collection (ATCC) and the European Collection of Authenticated Cell Cultures, respectively. The A549 cell line was maintained in Dulbecco’s Modified Eagle Medium (DMEM) supplemented with 4.5 g/L Glucose with UltraGlutamine with sodium pyruvate (Lonza, Basel Stücki, Switzerland), enriched with 10% fetal bovine serum (FBS; Biowest, Nuaillé, France). […]\n(§4) Cells were seeded at a previously determined optimal cell concentration (5.0 × 10^4 cells/mL for NSCLC cells and the nontumorigenic MRC-5 cell line and 1.0 × 10^5 cells/mL for colorectal cancer cells) and incubated at 37 °C for 24 h. […] Absorbance was measured at 510 nm in a multiplate reader (Synergy Mx, Biotek Instruments Inc., Winooski, Vermont, USA) using the Gen5 software (Biotek Instruments Inc.)."}, "A549 [4]": {"test_system": "A549", "assay": "SRB cell growth inhibition assay", "format": "cell-based", "conditions": "Homo sapiens, 48 h, NSCLC, read-out: GI50 ± SEM A549", "experimental": "as §3, §4"}}, "data": [{"smiles": "COC(=O)c1c2c(c[n+]([O-])c1C)C(=O)C=C(NCc1ccccc1)C2=O", "note": "[Compound 25]", "values": [{"measurement": "GI50", "setting": "NCI-H322 [1]", "result": 0.174, "unit": "µM"}, {"measurement": "GI50", "setting": "colon cell line panel", "result": "0.157 to 0.247", "unit": "µM"}, {"measurement": "percentage of viable cells", "setting": "NCI-H460 cells", "result": "significant decrease in the percentage of viable cells"}, {"measurement": "viability of NCI-H460/R spheroids", "setting": "NCI-H460/R spheroids", "result": "significant decrease in the viability of the spheroids"}, {"measurement": "GI50", "setting": "A549 [2]", "result": 0.232, "unit": "µM"}, {"measurement": "GI50", "setting": "NCI-H322 [3]", "result": "0.45 ± 0.06", "unit": "µM"}, {"measurement": "GI50", "setting": "A549 [4]", "result": "0.22 ± 0.02", "unit": "µM"}]}]}
